Like-named read-outs stand apart in the source and are kept apart here.
Biological target: 11β-hsd-1 enzyme (Homo sapiens, UniProt P28845)
Experiment: 11β-hsd-1 enzyme assay, percentage of inhibition (3H-cortisone to cortisol, radio-HPLC)
Type: biochemical
Conditions: read-out: % inh @ 0.1 uM

11β-hsd-1 enzyme, sequence (P28845 whole entry, species assumed): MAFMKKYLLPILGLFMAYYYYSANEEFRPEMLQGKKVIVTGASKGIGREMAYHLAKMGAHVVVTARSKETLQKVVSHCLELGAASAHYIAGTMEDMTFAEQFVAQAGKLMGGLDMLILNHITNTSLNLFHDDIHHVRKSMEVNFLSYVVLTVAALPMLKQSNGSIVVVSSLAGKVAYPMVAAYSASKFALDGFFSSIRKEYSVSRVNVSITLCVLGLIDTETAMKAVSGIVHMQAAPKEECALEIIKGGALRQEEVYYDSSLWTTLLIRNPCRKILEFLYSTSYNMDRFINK

inhibition at 0.1 µM (0.1 uM) [%]	inhibition at 0.1 µM (compound at 0.1 uM) [%]	Compound
61.7	–	Cc1cccc(NS(=O)(=O)c2ccc(-c3cccc(C#N)c3)cc2)n1 [Example 132]
83.5	–	Cc1cccc(NS(=O)(=O)c2ccc(-c3cc(Cl)ccc3Cl)cc2)n1 [Example 134]
49.1	–	COc1ccc(-c2ccc(S(=O)(=O)Nc3cccc(C)n3)cc2)c(OC)c1 [Example 135]
79	–	Cc1cccc(NS(=O)(=O)c2ccc(-c3ccc4ccccc4c3)cc2)n1 [Example 137]
91.2	–	Cc1cccc(NS(=O)(=O)c2ccc(-c3ccc4c(c3)OCO4)cc2)n1 [Example 138]
37.9	–	CSc1ccccc1-c1ccc(S(=O)(=O)Nc2cccc(C)n2)cc1 [Example 139]
91	–	Cc1cccc(NS(=O)(=O)c2ccc(-c3ccc(Cl)c(Cl)c3)cc2)n1 [Example 140]
83.8	–	CCSc1ccc(-c2ccc(S(=O)(=O)Nc3cccc(C)n3)cc2)cc1 [Example 141]
84.5	–	Cc1cccc(NS(=O)(=O)c2ccc(-c3ccc(F)cc3F)cc2)n1 [Example 142]
86.8	–	Cc1cccc(NS(=O)(=O)c2ccc(-c3ccc(OC(F)(F)F)cc3)cc2)n1 [Example 144]
80.6	–	Cc1cccc(NS(=O)(=O)c2ccc(-c3cc(F)cc(F)c3)cc2)n1 [Example 145]
46.5	–	Cc1cccc(NS(=O)(=O)c2ccc(-c3ccc(CO)cc3)cc2)n1 [Example 146]
29.5	–	COc1ccc(F)cc1-c1ccc(S(=O)(=O)Nc2cccc(C)n2)cc1 [Example 147]
57.2	–	CC(=O)c1cccc(-c2ccc(S(=O)(=O)Nc3cccc(C)n3)cc2)c1 [Example 148]
20.4	–	CC(=O)Nc1ccc(-c2ccc(S(=O)(=O)Nc3cccc(C)n3)cc2)cc1 [Example 149]
79.3	–	Cc1cccc(NS(=O)(=O)c2ccc(-c3ccc(F)c(C)c3)cc2)n1 [Example 150]
59.8	–	Cc1cccc(NS(=O)(=O)c2ccc(/C=C/c3ccccc3)cc2)n1 [Example 151]
72.7	–	Cc1cccc(NS(=O)(=O)c2ccc(-c3cc(F)c(F)c(F)c3)cc2)n1 [Example 152]
75.3	–	Cc1cccc(NS(=O)(=O)c2ccc(-c3cccc(OC(F)(F)F)c3)cc2)n1 [Example 153]

inhibition at 0.1 µM (0.1 uM) [%]	inhibition at 0.1 µM (compound at 0.1 uM) [%]	Compound
83.3	–	Cc1cccc(NS(=O)(=O)c2ccc(-c3cccc(COc4ccccc4)c3)cc2)n1 [Example 155]
65.6	–	COc1c(C)cc(-c2ccc(S(=O)(=O)Nc3cccc(C)n3)cc2)cc1C [Example 156]
100	–	Cc1cccc(NS(=O)(=O)c2ccc(-c3ccc(C(F)(F)F)cc3)cc2)n1 [Example 157]
71	–	Cc1cccc(NS(=O)(=O)c2ccc(-c3ccc(S(C)(=O)=O)cc3)cc2)n1 [Example 158]
90.4	–	Cc1cccc(NS(=O)(=O)c2ccc(-c3ccc(OCc4ccccc4)cc3)cc2)n1 [Example 159]
59	–	Cc1cccc(NS(=O)(=O)c2ccc(-c3ccc(C(C)(C)C)cc3)cc2C)n1 [Example 175]
53	–	CCOc1ccccc1-c1ccc(S(=O)(=O)Nc2cccc(C)n2)c(C)c1 [Example 188]
88	–	Cc1cccc(-c2ccc(S(=O)(=O)Nc3cccc(C)n3)c(C)c2)c1 [Example 189]
–	55	Cc1cccc(NS(=O)(=O)c2ccc(-c3ccc(O)cc3)cc2C)n1 [Example 199]
–	56	Cc1cccc(NS(=O)(=O)c2ccc(-c3ccccc3C)c(C)c2)n1 [Example 218]
–	67	Cc1cccc(NS(=O)(=O)c2ccc(-c3cccc(C#N)c3)c(C)c2)n1 [Example 220]
–	40	Cc1cccc(-c2ccc(S(=O)(=O)Nc3cccc(C)n3)cc2C)c1 [Example 227]
–	9	CCOc1ccc(-c2ccc(S(=O)(=O)Nc3cccc(C)n3)cc2C)cc1 [Example 229]
–	23	Cc1cccc(NS(=O)(=O)c2ccc(-c3ccccc3F)c(C)c2)n1 [Example 230]
–	63	COc1ccc(-c2ccc(S(=O)(=O)Nc3cccc(C)n3)cc2C)cc1F [Example 231]
–	57	Cc1cccc(NS(=O)(=O)c2ccc(-c3ccc(S(C)(=O)=O)cc3)c(C)c2)n1 [Example 234]
–	87	CCc1ccc(-c2ccc(S(=O)(=O)Nc3cccc(C)n3)cc2C)cc1 [Example 235]
–	58	Cc1cccc(NS(=O)(=O)c2ccc(-c3cccc(Cl)c3Cl)c(C)c2)n1 [Example 237]
–	65	COc1ccc(C(C)C)cc1-c1ccc(S(=O)(=O)Nc2cccc(C)n2)cc1C [Example 239]

inhibition at 0.1 µM (0.1 uM) [%]	inhibition at 0.1 µM (compound at 0.1 uM) [%]	Compound
–	89	Cc1ccc(C)c(-c2ccc(S(=O)(=O)Nc3cccc(C)n3)cc2C)c1 [Example 240]
–	64	Cc1cccc(NS(=O)(=O)c2ccc(-c3c(C)cccc3C)c(C)c2)n1 [Example 241]
–	61	Cc1cccc(NS(=O)(=O)c2ccc(-c3ccc(F)cc3C)c(C)c2)n1 [Example 242]
–	70	COc1ccc(-c2ccc(S(=O)(=O)Nc3cccc(C)n3)cc2C)cc1C [Example 243]
–	86	Cc1cccc(NS(=O)(=O)c2ccc(-c3ccc(F)c(F)c3)c(C)c2)n1 [Example 244]
–	62	Cc1cccc(NS(=O)(=O)c2ccc(-c3ccc4c(c3)OCCO4)c(C)c2)n1 [Example 245]
–	65	CCCCc1ccc(-c2ccc(S(=O)(=O)Nc3cccc(C)n3)cc2C)cc1 [Example 246]
–	57	Cc1cccc(NS(=O)(=O)c2ccc(-c3ccc(CC(C)C)cc3)c(C)c2)n1 [Example 248]
–	17	Cc1cccc(NS(=O)(=O)c2ccc(-c3cn[nH]c3)cc2)n1 [Example 250]
–	44	Cc1cccc(NS(=O)(=O)c2ccc(-c3ccc(O)cc3)cc2)n1 [Example 252]
–	64.6	COc1ccc(-c2ccc(S(=O)(=O)Nc3cccc(C)n3)cc2)c(C)c1 [Example 255]
–	30	Cc1cccc(NS(=O)(=O)c2ccc(-c3ccccn3)cc2)n1 [Example 259, N-(6-Methyl-pyridin-2-yl)-4-pyridin-2-yl-benzenesulfonamide trifuoroacetate]
–	14.8	Cc1cccc(NS(=O)(=O)c2ccc(-c3cn(C)cn3)cc2)n1 [Example 260]
–	2.6	Cc1cccc(NS(=O)(=O)c2ccc(-c3ncccn3)nc2)n1 [Example 261]
–	45.7	Cc1cccc(NS(=O)(=O)c2ccc(-c3ccc(C(N)=O)cc3)cc2)n1 [Example 262, 4′-(6-Methyl-pyridin-2-ylsulfamoyl)-biphenyl-4-carboxylic acid amide]
–	11.8	Cc1cccc(NS(=O)(=O)c2ccc(-c3ccc(OCCN)cc3)cc2)n1 [Example 263, 4′-(2-Amino-ethoxy)-biphenyl-4-sulfonic acid (6-methyl-pyridin-2-yl)-amide]
–	39.7	Cc1cccc(NS(=O)(=O)c2ccc(-c3cnco3)cc2)n1 [Example 264, N-(6-Methyl-pyridin-2-yl)-4-oxazol-5-yl-benzenesulfonamide]
–	11.4	Cc1cccc(N(CCN(C)C)S(=O)(=O)c2ccc(-c3ccc(C#N)cc3)cc2)n1 [Example 265, 4′-Cyano-biphenyl-4-sulfonic acid (2-dimethylamino-ethyl)-(6-methyl-pyridin-2-yl)-amide]

Reference: US20050148631A1, “Amino heterocyclyl inhibitors of 11-beta-hydroxy steroid dehydrogenase type 1” (AGOURON PHARMACEUTICALS, INC., priority 2003, published 2005)
